Common to all, as to test: relative viability (nuclei count vs DMSO), 5 days (fraction); higher = more cells survive
Compound in assay [1]: CC1=CC(=NN1)NC2=CC(=NC(=N2)/C=C/C3=CC=CC=C3)N4CCN(CC4)C + CS(=O)(=O)N1CCN(Cc2cc3nc(-c4cccc5[nH]ncc45)nc(N4CCOCC4)c3s2)CC1 [Pictilisib] (partner 1 µM)
An outline of the steps:
(§1)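 For relative viability, nuclei counts in treated wells were divided by those in vehicle wells. Lung cancer cell lines had been pin-tool dosed in 1536-well plates the day after seeding and cultured for 5 days, then fixed and stained in one step (final 0.05% Triton X-100, 1% formaldehyde, 1 ug/ml Hoechst) and imaged at 4×. Doses were one drug alone or a fixed anchor-drug dose plus five library-drug doses (not always all listed) in √10 steps, and values are duplicate-plate medians.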

Compound in the assay “Obatoclax + Trametinib”: COC1=CC(c2cc3ccccc3[nH]2)=N/C1=C\c1[nH]c(C)cc1C [Obatoclax] + CC(=O)Nc1cccc(-n2c(=O)n(C3CC3)c(=O)c3c(Nc4ccc(I)cc4F)n(C)c(=O)c(C)c32)c1 [Trametinib] (partner 0.02 µM)
An outline of the steps:
as §1

Compound in the assay “Obatoclax + Alpelisib”: COC1=CC(c2cc3ccccc3[nH]2)=N/C1=C\c1[nH]c(C)cc1C [Obatoclax] + Cc1nc(NC(=O)N2CCC[C@H]2C(N)=O)sc1-c1ccnc(C(C)(C)C(F)(F)F)c1 [Alpelisib] (partner 2 µM)
An outline of the steps: as §1

Compound in the assay “Bortezomib + Luminespib”: CC(C)C[C@H](NC(=O)[C@H](Cc1ccccc1)NC(=O)c1cnccn1)B(O)O [Bortezomib] + CCNC(=O)c1noc(-c2cc(C(C)C)c(O)cc2O)c1-c1ccc(CN2CCOCC2)cc1 [Luminespib] (partner 0.01 µM)
The method, boiled down:
as §1

These results are taken from the supplement of paper PMC10307832.

For NCI-H650, the relative viability in assay [1] (first compound 0.08 µM) came to 0.763; in assay [1] (first compound 0.253 µM), 0.92; in assay [1] (first compound 0.8 µM), 0.93; in assay [1] (first compound 2.53 µM), 0.719; in assay [1] (first compound 8 µM), 0.183; in the assay with Obatoclax + Trametinib (first compound 0.01 µM), 0.888. For the same cell line, the relative viability stood at 1.02 with Obatoclax + Trametinib (first compound 0.03162 µM); 0.373 in the assay with Obatoclax + Trametinib (first compound 0.3162 µM); 0.625 with Obatoclax + Trametinib (first compound 1 µM); 0.975 in the assay with Obatoclax + Alpelisib (first compound 0.01 µM); 1.1 with Obatoclax + Alpelisib (first compound 0.03162 µM); 0.811 with Obatoclax + Alpelisib (first compound 0.1 µM). Further, the relative viability in the assay with Obatoclax + Alpelisib (first compound 0.3162 µM) is 0.693; in the assay with Obatoclax + Alpelisib (first compound 1 µM), 0.446; with Bortezomib + Luminespib (first compound 0.000632 µM), 0.731; with Bortezomib + Luminespib (first compound 0.002 µM), 0.676; with Bortezomib + Luminespib (first compound 0.006325 µM) it was 0.469; with Bortezomib + Luminespib (first compound 0.02 µM) it was 0.155.
